Experimental data as given in PubChem BioAssay (NCI).
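Grown in 96-well plates, cells were treated for 48 hours with each compound at five concentrations. Insufficient inhibition: endpoint recorded as highest concentration tested. The concentration for 50% growth inhibition is given as GI50. TGI denotes the concentration required for complete inhibition of growth.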

Columns and labels:
Experiment in all cases: NCI tumour cell line growth inhibition, 48 h
CAKI-1 renal = tested on: CAKI-1 renal
NCI/ADR-RES ovarian = tested on: NCI/ADR-RES ovarian
SK-MEL-28 melanoma = tested on: SK-MEL-28 melanoma
RPMI-8226 leukemia = tested on: RPMI-8226 leukemia
NCI-H460 lung = tested on: NCI-H460 lung
MALME-3M melanoma = tested on: MALME-3M melanoma
SF-295 CNS = tested on: SF-295 CNS
HT29 colon = tested on: HT29 colon
DU-145 prostate = tested on: DU-145 prostate
SNB-19 CNS = tested on: SNB-19 CNS

SMILES | GI50 (CAKI-1 renal) [µM] | TGI (CAKI-1 renal) [µM] | GI50 (NCI/ADR-RES ovarian) [µM] | TGI (NCI/ADR-RES ovarian) [µM] | GI50 (SK-MEL-28 melanoma) [µM] | TGI (SK-MEL-28 melanoma) [µM] | GI50 (RPMI-8226 leukemia) [µM] | TGI (RPMI-8226 leukemia) [µM] | GI50 (NCI-H460 lung) [µM] | TGI (NCI-H460 lung) [µM] | GI50 (MALME-3M melanoma) [µM] | TGI (MALME-3M melanoma) [µM] | GI50 (SF-295 CNS) [µM] | TGI (SF-295 CNS) [µM] | GI50 (HT29 colon) [µM] | TGI (HT29 colon) [µM] | GI50 (DU-145 prostate) [µM] | TGI (DU-145 prostate) [µM] | GI50 (SNB-19 CNS) [µM] | TGI (SNB-19 CNS) [µM]
CC(=N\O)/C(C)=N/O.CC(=N\O)/C(C)=N/O.CC(=N\O)/C(C)=N/O.CC(=N\O)/C(C)=N/O.[Cu].[Cu] | 20.3 | 34.6 | 23.9 | 59.2 | 18.8 | 35.4 | 27.1 | 63.7 | 20.4 | 38.5 | 17.7 | 32.4 | 19.9 | 37.9 | 17.7 | 35.4 | 56.8 | > 100 | 19.7 | 34.5
Cc1cc(=O)c2cc(N=Cc3ccc([N+](=O)[O-])o3)ccc2o1 | – | > 100 | – | > 100 | – | > 100 | – | > 100 | – | > 100 | – | > 100 | – | > 100 | – | > 100 | – | > 100 | – | > 100
CNC(=O)c1c(NC(=O)c2cccc(C(F)(F)F)c2)sc2c1CCC(=O)C2 | 0.282 | 1.22 | 0.349 | 1.72 | 0.837 | > 100 | 0.198 | 0.781 | 0.365 | > 100 | 0.373 | 2.28 | 0.36 | 1.88 | 0.347 | – | 3.22 | > 100 | 0.356 | > 100
Cc1[nH]c(C(=O)Nc2ccc(C(=O)N3CCNCC3)cc2OC(C)C)c(Cl)c1Cl | 3.61 | 15.1 | 2.25 | 5.58 | 1.78 | 3.24 | 2.31 | 5.51 | 1.88 | 3.44 | 1.59 | 3.05 | 1.89 | 3.68 | 1.76 | 3.26 | 2.06 | 4.06 | 1.89 | 3.95
COc1ccc(-c2nsc3c2NC(=O)CC3c2ccc3c(c2)OCO3)cc1 (stereo not drawn) | 0.852 | > 100 | 0.524 | 6.12 | 5.28 | > 100 | 2.51 | > 100 | 0.498 | > 100 | 0.77 | > 100 | 1.92 | 25.9 | 0.414 | 11.3 | 2.78 | 53.1 | 48.7 | > 100
COc1ccc(Nc2ccnc(NCCNc3ccnc4cc(Cl)ccc34)n2)cc1 | 1.73 | 4.57 | 3.9 | 16.9 | 1.65 | 3.35 | 1.55 | 4.84 | 2.36 | 12.8 | 1.93 | 3.87 | 1.03 | 2.78 | 0.546 | 8.28 | 5.03 | 17.6 | 2.86 | 12
O=c1[nH]cnc2c1nnn2C1OC(CO)C(O)C1O (stereo not drawn) | 0.735 | > 45.1 | 0.835 | > 31.4 | 16.7 | > 100 | 1.33 | 21.5 | 1.11 | > 100 | 2.64 | > 59 | 1.71 | > 65.7 | 2.15 | > 100 | 0.548 | 14 | 19.6 | > 100
CC1=C(SCc2ccccc2)C(=O)c2ccccc2C1=O | – | 26.2 | – | 61.1 | – | 36.5 | – | 7.36 | – | 51.6 | – | 29.2 | – | 32.5 | – | 90.2 | – | 34.9 | – | –
CCN(CC)CCOc1ccc(Nc2ncc3cc(-c4c(Cl)cccc4Cl)c(=O)n(CCOC)c3n2)cc1 | 0.0149 | 0.174 | 0.415 | 7.2 | 1.71 | 8.97 | 0.921 | 3.15 | 0.562 | 4.77 | 0.39 | 3.95 | 0.375 | 6.07 | 0.105 | 2.27 | 0.217 | 2.8 | 0.458 | 6.01
COc1cc2c(c(OC)c1OC)-c1ccc(NNC(=S)N(Cc3cccc(C[N+](Cc4cccc(CNC56CC7CC(CC(C7)C5)C6)c4)(Cc4cccc(CNC56CC7CC(CC(C7)C5)C6)c4)Cc4cccc(CN(C(=S)NNc5ccc6c(cc5=O)[C@@H](NC(C)=O)CCc5cc(OC)c(OC)c(OC)c5-6)C56CC7CC(CC(C7)C5)C6)c4)c3)C34CC5CC(CC(C5)C3)C4)c(=O)cc1[C@@H](NC(C)=O)CC2 (stereo partly drawn) | 3.2 | 7.37 | 5.43 | 12.5 | 1.02 | 4.07 | 0.757 | 1.76 | 1.22 | 3.79 | 0.83 | 3.04 | 1.53 | 5.92 | 0.958 | 2.81 | 2.46 | 7.1 | 1.65 | 6.2
CNc1nc(C)c(-c2nc(Nc3cccc(S(N)(=O)=O)c3)ncc2F)s1 | 0.052 | 37.2 | 0.0886 | 9.17 | 0.0319 | 0.278 | 0.0958 | 0.273 | 0.0776 | 3.89 | 0.0797 | 0.187 | 0.0406 | 6.79 | 0.0605 | 10.8 | 0.0358 | 17.6 | 0.0273 | 14.1
Nc1c(C(=O)c2cccc(-c3ccc[n+]([O-])c3)c2)cnn1-c1ccc(F)cc1F | > 25 | > 25 | > 25 | > 25 | > 25 | > 25 | > 25 | > 25 | > 25 | > 25 | > 25 | > 25 | > 25 | > 25 | > 25 | > 25 | > 25 | > 25 | > 25 | > 25
O=C1c2ccccc2-c2c1c1ccc([N+](=O)[O-])cc1c(=O)n2CCNCCCNCCn1c2c(c3ccc([N+](=O)[O-])cc3c1=O)C(=O)c1ccccc1-2 | 0.822 | 21.7 | 0.923 | 25.9 | 1.29 | 10.2 | 0.00538 | 0.139 | 2.68 | 18.7 | 0.626 | 30.8 | 0.0715 | 19.9 | 0.0105 | 5.52 | 0.96 | 21.1 | 0.126 | 4.94
OCCCCC#Cc1ccccc1C#Cc1ccccc1F | 24.2 | 51.4 | 21.1 | 46.7 | 27.3 | 72.9 | 30.7 | 70 | 25.9 | 60.5 | 26.1 | 46.9 | 21.6 | 42.7 | 52 | > 100 | 35.7 | > 100 | 17.5 | 36.8
COc1ccc(C(O)c2cc3c(N)c(C(=O)Nc4cccc(Cl)c4C)sc3nc2C)cc1 (stereo not drawn) | 0.689 | 1.38 | 0.915 | 1.84 | 0.854 | 1.58 | 0.681 | 1.85 | 0.834 | 1.73 | 0.809 | 1.51 | 0.881 | 1.66 | 0.768 | 1.72 | 0.929 | 1.85 | 0.943 | 1.92
C=C1C(=O)O[C@H]2[C@H]1CC/C(CNC(=O)/C=C/c1cccc(OC)c1)=C\CC[C@@]1(C)O[C@@H]21 | 1.31 | 2.68 | 3.79 | 17.8 | 1.74 | 4.23 | 1.31 | 4.97 | 2.51 | 7.05 | 1.48 | 3.3 | 5.54 | 19.3 | 1.22 | 2.81 | 1.19 | 2.49 | 3.22 | 13.5
CCc1ccc(-c2ccc(=O)n(-c3ccc(S(N)(=O)=O)cc3)n2)cc1 | 2.6 | > 100 | 0.412 | 12.2 | 6.73 | > 100 | 0.759 | 7.33 | 0.97 | > 21.2 | 0.371 | 23.1 | 0.992 | 29.4 | 0.484 | > 100 | 21.3 | > 100 | 5.21 | 40.1
Nc1nc2c(c3ncccc13)C(c1ccc(Cl)c(Cl)c1)Cc1ncccc1-2 (stereo not drawn) | 3.9 | 20.5 | 3.31 | 16.1 | 4.07 | 13.9 | 3.81 | 34 | 3.47 | 13 | 8.94 | 26.3 | 2.82 | 7.94 | 3.22 | 11.9 | 3.6 | 12.5 | 3.77 | 14.4
Cc1nc2cncc(C#Cc3cncc(C(=O)Nc4ccc(CN5CCN(C)CC5)c(C(F)(F)F)c4)c3)c2nc1C | 0.438 | 3.1 | 1.83 | 8.65 | 0.422 | 2.71 | 0.487 | 4.49 | 0.354 | 6.34 | 0.146 | 0.623 | 2.13 | 22.2 | 0.205 | 7.56 | 0.349 | 6.48 | 5.08 | 13.2
CC1=C(C(=O)Nc2ccc3[nH]ncc3c2)C(c2ccc(F)cc2)NC(=O)N1 (stereo not drawn) | > 25 | > 25 | > 25 | > 25 | > 25 | > 25 | > 25 | > 25 | > 25 | > 25 | > 25 | > 25 | > 25 | > 25 | > 25 | > 25 | > 25 | > 25 | > 25 | > 25
OCc1cccc(-c2ccc3ncc(-c4nc(NC5CC5)ncc4F)n3c2)c1 | 0.153 | 1.65 | 0.321 | 1.68 | 0.29 | 0.998 | 0.22 | 0.788 | 0.249 | 0.825 | 0.375 | 1.06 | 0.334 | 1.59 | 0.329 | > 100 | 0.287 | 1.83 | 0.323 | 4.18
NC(=O)C(Br)CBr (stereo not drawn) | 0.472 | 1.16 | 2.93 | > 24.1 | 1.69 | 3.29 | 2.82 | 11.9 | 3.56 | 13.5 | 1.91 | 4.53 | 14.7 | 35.2 | 1.59 | 9.42 | 2.26 | 5.72 | 15.5 | 29.6
C=C(C)C(=O)OC1CC2(C)OC2CC(OC(C)=O)/C(C)=C/C2OC(=O)C(=C)C21 (stereo not drawn) | – | 9.84 | – | 18.2 | – | 1.94 | – | 3.49 | – | 9.29 | – | 3.23 | – | 30.3 | – | 6.98 | – | 4.7 | – | 28.7
O=S1(=O)N(Cc2ccccc2)[C@@H](Cc2ccccc2)C2O[C@H]2[C@H](Cc2ccccc2)N1Cc1ccccc1 (stereo partly drawn) | 0.949 | > 7.5 | 5.23 | > 7.5 | > 7.5 | > 7.5 | 4.92 | > 7.5 | 2.53 | > 7.5 | > 7.5 | > 7.5 | 1.8 | > 7.5 | > 7.5 | > 7.5 | > 7.5 | > 7.5 | > 7.5 | > 7.5
